Assays:
Conditions in all cases: incubation time: 72 h
Hs578T = assay: normalised response (% of control), CellTox Green; higher = less cell death (100 = DMSO, 0 = benzethonium chloride kill control)
How it was run: (§1)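 After 72 h with compound in 384-well plates, breast cancer cell lines seeded as 20 µl suspension were read for CellTox Green fluorescence at 485/520 nm. CellTiter-Glo luminescence was then read after 10 min at room temperature. Compound was present at 5 concentrations in 10-fold steps over a 10,000-fold range set per compound, and plates were normalised to 0.1 % DMSO (100) and a positive kill control (0). Values are normalised signals, each at a single concentration.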

BT-549 = assay: as above
How it was run: as §1

HDQ-P1 [1] = assay: as above
How it was run: as §1

BT-474 = assay: as above
How it was run: as §1

CAL-120 = assay: as above
How it was run: as §1

MDA-MB-453 [2] = assay: as above
How it was run: as §1

CAL-51 [3] = assay: as above
How it was run: as §1

CAL-148 = assay: normalised viability (% of control), CellTiter-Blue; higher = more viable cells (about 100 = DMSO control)
Procedure: (§2)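 DSRT, CellTiter-Blue viability, 72 h incubation. Signal is normalised to DMSO and benzethonium chloride controls. Value is the normalised response at dose 7.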

HDQ-P1 [4] = assay: as above
Procedure: as §2

CAL-85-1 = assay: as above
Procedure: as §2

MDA-MB-453 [5] = assay: as above
Procedure: as §2

CAL-51 [6] = assay: as above
Procedure: as §2

DU-4475 = assay: as above
Procedure: as §2

| SMILES | normalised response (Hs578T) [%] | normalised response (BT-549) [%] | normalised response (HDQ-P1 [1]) [%] | normalised response (BT-474) [%] | normalised response (CAL-120) [%] | normalised response (MDA-MB-453 [2]) [%] | normalised response (CAL-51 [3]) [%] | normalised viability (CAL-148) [%] | normalised viability (HDQ-P1 [4]) [%] | normalised viability (CAL-85-1) [%] | normalised viability (MDA-MB-453 [5]) [%] | normalised viability (CAL-51 [6]) [%] | normalised viability (DU-4475) [%] |
| --- | --- | --- | --- | --- | --- | --- | --- | --- | --- | --- | --- | --- | --- |
| O=P1(NCCCl)OCCCN1CCCl (stereo not given) [Ifosfamide] (1000 nM) | 89.2 | 107 | 67.6 | 98.2 | 99.5 | 107 | 95.4 | 101 | 103 | 81.2 | 112 | 114 | 101 |
| Cc1ccc(C(=O)Nc2ccc(CN3CCN(C)CC3)c(C(F)(F)F)c2)cc1C#Cc1cnc2cccnn12 [Ponatinib] (100 nM) |  | 92 | 95.6 | 97.9 | 99.1 | 105 | 99 | 94.8 | 92.8 | 89.3 | 77.7 | 82.9 | 104 |
| N[C@@H](CSC(c1ccccc1)(c1ccccc1)c1ccccc1)C(=O)O [S-trityl-L-cysteine] (4000 nM) | 106 | 104 | 62.2 | 101 | 97.9 | 101 | 105 | 117 | 86.5 | 98.3 | 94.3 | 85.1 | 103 |
| CCC1(c2ccc(N)cc2)CCC(=O)NC1=O (stereo not given) [Aminoglutethimide] (1000 nM) | 71.8 | 117 | 104 | 102 | 99.8 | 101 | 83.5 | 113 | 79.3 | 95.2 | 88.8 | 91 | 86.1 |
| Oc1nc(-c2ccc(C(F)(F)F)cc2)nc2c1CSCC2 [XAV-939] (1000 nM) | 88.9 | 106 | 77.1 | 101 | 102 | 102 | 102 | 101 | 103 | 81.8 | 90.3 | 93.2 | 108 |
| Cc1ccc(C(=O)N(CCCN)[C@@H](c2oc3cc(Cl)ccc3c(=O)c2Cc2ccccc2)C(C)C)cc1 (100 nM) |  | 91.1 |  | 102 | 98.8 | 93.5 | 74.4 | 18.9 | 72.5 | 30.1 | 25.4 | 34.7 | 43 |
| COc1cc2nccc(Oc3ccc(NC(=O)C4(C(=O)Nc5ccc(F)cc5)CC4)cc3)c2cc1OC [Cabozantinib] (100 nM) | 102 | 101 | 91.5 | 100 | 98.2 | 99.4 | 100 | 107 | 85.5 | 79.6 | 95.3 | 102 | 91.8 |
| C=C(c1ccc(C(=O)O)cc1)c1cc2c(cc1C)C(C)(C)CCC2(C)C [Bexarotene] (10000 nM) |  | 89.8 | 110 | 97.8 | 100 | 98.4 | 96.8 |  |  |  |  |  |  |
| CCC1=C[C@@H]2CN(C1)Cc1c([nH]c3ccccc13)[C@@](C(=O)OC)(c1cc3c(cc1OC)N(C)[C@H]1[C@@](O)(C(=O)OC)[C@H](OC(C)=O)[C@]4(CC)C=CCN5CC[C@]31[C@@H]54)C2 [Vinorelbine] (1000 nM) | 27.5 | 63.8 | -18.4 | 61.2 | 91.7 | 101 | 18.8 | 21.1 | 38.6 | 37.5 | 28 | 19.7 | 29 |
| CCC1(c2ccc(N)cc2)CCC(=O)NC1=O (stereo not given) [Aminoglutethimide] (10000 nM) | 127 | 104 | 107 | 90 | 99.7 | 96.9 | 115 |  |  |  |  |  |  |
| CNCc1ccc(-c2[nH]c3cc(F)cc4c3c2CCNC4=O)cc1 [Rucaparib] (1000 nM) | 110 | 115 | 71.8 | 95.8 | 97.2 | 103 | 93.3 | 92.2 | 89.6 | 85.4 | 102 | 103 | 82.3 |
| CNCc1ccc(-c2[nH]c3cc(F)cc4c3c2CCNC4=O)cc1 [Rucaparib] (10000 nM) |  | 112 | 105 | 96.9 | 98.4 | 101 | 94.4 |  |  |  |  |  |  |
| Cc1ccc(-n2nc(C(C)(C)C)cc2NC(=O)Nc2ccc(OCCN3CCOCC3)c3ccccc23)cc1 [Doramapimod] (1000 nM) | 82.6 | 93.2 | 89.6 | 97.6 | 96.1 | 105 | 101 | 105 | 66.7 | 73.5 | 87.9 | 101 | 122 |
| CN[C@@H]1C[C@H]2O[C@@](C)([C@@H]1OC)n1c3ccccc3c3c4c(c5c6ccccc6n2c5c31)C(=O)N[C@H]4O [UCN-01] (10000 nM) | -27.6 | 43.8 | 43.6 | 24.5 | 18.1 | 78.3 | 33.5 |  |  |  |  |  |  |
| O=C1CCC(N2C(=O)c3ccccc3C2=O)C(=O)N1 (stereo not given) [Thalidomide] (1000 nM) | 97.6 |  | 111 | 97.5 | 101 | 103 | 111 | 116 | 81.1 | 99.4 | 103 | 84.8 | 97 |
| Cn1c(CCCC(=O)O)nc2cc(N(CCCl)CCCl)ccc21 [Bendamustine] (1000 nM) |  | 119 | 95.9 | 103 | 99.9 | 104 | 116 | 117 | 108 | 86.3 | 102 | 109 | 112 |
| Clc1ccc(Nc2nnc(Cc3ccncc3)c3ccccc23)cc1 [Vatalanib] (10000 nM) | 78.7 | 118 | 114 | 102 | 102 | 105 | 109 |  |  |  |  |  |  |

| SMILES | normalised response (Hs578T) [%] | normalised response (BT-549) [%] | normalised response (HDQ-P1 [1]) [%] | normalised response (BT-474) [%] | normalised response (CAL-120) [%] | normalised response (MDA-MB-453 [2]) [%] | normalised response (CAL-51 [3]) [%] | normalised viability (CAL-148) [%] | normalised viability (HDQ-P1 [4]) [%] | normalised viability (CAL-85-1) [%] | normalised viability (MDA-MB-453 [5]) [%] | normalised viability (CAL-51 [6]) [%] | normalised viability (DU-4475) [%] |
| --- | --- | --- | --- | --- | --- | --- | --- | --- | --- | --- | --- | --- | --- |
| Cn1c(Nc2ccc(C(F)(F)F)cc2)nc2cc(Oc3ccnc(-c4ncc(C(F)(F)F)[nH]4)c3)ccc21 [RAF265] (1000 nM) | 118 | 81.7 | 109 | 98.1 | 100 | 102 | 96.3 |  |  |  |  |  |  |
| CC1(C)NC(=O)N(c2ccc([N+](=O)[O-])c(C(F)(F)F)c2)C1=O [Nilutamide] (10000 nM) | 102 | 107 | 98.1 | 98.8 | 101 | 97.3 | 102 |  |  |  |  |  |  |
| COc1cc2nccc(Oc3ccc(NC(=O)C4(C(=O)Nc5ccc(F)cc5)CC4)cc3)c2cc1OC [Cabozantinib] (1000 nM) | 70.1 | 105 | 65.3 | 98.4 | 98.6 | 101 | 82.7 |  |  |  |  |  |  |
| COc1cc([C@@H]2c3cc4c(cc3[C@@H](O[C@@H]3O[C@@H]5CO[C@@H](C)O[C@H]5[C@H](O)[C@H]3O)[C@H]3COC(=O)[C@H]23)OCO4)cc(OC)c1O [Etoposide] (1000 nM) |  | 109 | 95.6 | 101 | 95.7 | 94.8 | 50.3 | 63.4 | 88.8 | 90.8 | 93.4 | 35.4 | 12.3 |
| Cc1ccc(-n2nc(C(C)(C)C)cc2NC(=O)Nc2ccc(OCCN3CCOCC3)c3ccccc23)cc1 [Doramapimod] (10000 nM) | 71.6 | 110 | 96.2 | 97.5 | 93.6 | 104 | 86.3 |  |  |  |  |  |  |
| Cn1c(Nc2ccc(C(F)(F)F)cc2)nc2cc(Oc3ccnc(-c4ncc(C(F)(F)F)[nH]4)c3)ccc21 [RAF265] (100 nM) | 107 |  | 113 | 100 | 100 | 105 | 100 | 101 | 74.6 | 80.5 | 83.7 | 86.1 | 104 |
| O=C1CCC(N2C(=O)c3ccccc3C2=O)C(=O)N1 (stereo not given) [Thalidomide] (10000 nM) | 63.3 | 99.3 |  | 103 | 104 | 93.2 | 100 |  |  |  |  |  |  |
| Cn1c(CCCC(=O)O)nc2cc(N(CCCl)CCCl)ccc21 [Bendamustine] (10000 nM) |  | 118 |  | 101 | 99.4 | 101 | 115 |  |  |  |  |  |  |
| C#Cc1cccc(Nc2ncnc3cc(OCCOC)c(OCCOC)cc23)c1 [Erlotinib] (10000 nM) | 64.7 | 95.8 | 79.7 | 83.9 | 100 | 95.1 | 86 |  |  |  |  |  |  |
| CO[C@H]1/C=C\C=C(/C)C(=O)NC2=CC(=O)C(NCCN(C)C)=C(C[C@@H](C)C[C@H](OC)[C@H](O)[C@@H](C)/C=C(\C)[C@@H]1OC(N)=O)C2=O [Alvespimycin] (1000 nM) | -33.1 | 107 | 80 | 61.3 | 87.5 | 82.7 | 69.6 |  |  |  |  |  |  |
| O=P1(NCCCl)OCCCN1CCCl (stereo not given) [Ifosfamide] (10000 nM) | 54.2 | 77.5 | 101 | 70.9 | 100 | 104 | 93.9 |  |  |  |  |  |  |
| Cc1ccc(C(=O)Nc2ccc(CN3CCN(C)CC3)c(C(F)(F)F)c2)cc1C#Cc1cnc2cccnn12 [Ponatinib] (1000 nM) | 24.4 | 59.4 | 76.6 | 92.3 | 59.5 | 103 | 57.4 |  |  |  |  |  |  |
| CN(C)/N=N/c1[nH]cnc1C(N)=O [Dacarbazine] (10000 nM) | 126 | 94.1 | 111 | 95 | 105 | 101 | 111 |  |  |  |  |  |  |
| Oc1nc(-c2ccc(C(F)(F)F)cc2)nc2c1CSCC2 [XAV-939] (10000 nM) | 65.4 | 104 | 71.7 | 103 | 93.8 | 94.1 | 79.7 |  |  |  |  |  |  |
| C=C(c1ccc(C(=O)O)cc1)c1cc2c(cc1C)C(C)(C)CCC2(C)C [Bexarotene] (1000 nM) |  | 98.8 | 95.3 | 99.1 | 99.6 | 84.4 | 110 | 96.6 | 76 | 84.5 | 86.5 | 80.6 | 116 |
| CN(C)/N=N/c1[nH]cnc1C(N)=O [Dacarbazine] (1000 nM) |  | 114 | 88.7 | 102 | 100 | 103 | 105 | 106 | 110 | 90 | 109 | 85.8 | 96.2 |
| N[C@@H](CSC(c1ccccc1)(c1ccccc1)c1ccccc1)C(=O)O [S-trityl-L-cysteine] (40000 nM) | 126 | 121 | 115 | 103 | 105 | 113 | 104 |  |  |  |  |  |  |

From the supplement of paper PMC4862054
